Experimental data reported in patent US8808979B2, “Methods related to liver enzyme induction as a predisposition for liver toxicity and diseases or disorders associated therewith” (priority 2008, dated 2014).

Key:
male rats = experiment: Plasma metabolite profiling (GC-MS/LC-MS), markers for liver enzyme induction in male rats, 28-day gavage study; assay type: in vivo, rat; conditions: high dose
Protocol: (§1) A group of each 5 male and female rats was dosed once daily with the indicated compounds (see tables below) at 10 and 100 mg/kg body weight per gavage over 28 days. Additional groups of each 5 male and female animals served as controls. Before starting the treatment period, animals, which were 62-64 days old when supplied, were acclimatized to the housing and environmental conditions for 7 days. All animals of the animal population were kept under the same constant temperature (20-24±3° C.) and the same constant humidity (30-70%). Each animal of the animal population was kept in a separate cage. The animals of the animal population are fed ad libitum. The food to be used was be essentially free of chemical or microbial contaminants. Drinking water was also offered ad libitum. Accordingly, the water was be free of chemical and microbial contaminants as laid down in the European Drinking Water Directive 98/83/EG. The illumination period was 12 hours light followed by 12 hours darkness (12 hours light, from 6:00 to 18:00, and 12 hours darkness, from 18:00 to 6:00).
(§2) In the morning of day 7, 14, and 28, blood was taken from the retroorbital venous plexus from fasted anaesthetized animals. From each animal, 1 ml of blood was collected with EDTA as anticoagulant. The samples were be centrifuged for generation of plasma. All plasma samples were covered with a N2 atmosphere and then stored at—80° C. until analysis.
(§3) For mass spectrometry-based metabolite profiling analyses plasma samples were extracted and a polar and a non-polar fraction was obtained. For GC-MS analysis, the non-polar fraction was treated with methanol under acidic conditions to yield the fatty acid methyl esters. Both fractions were further derivatised with O-methyl-hydroxyamine hydrochloride and pyridine to convert oxo-groups to O-methyloximes and subsequently with a silylating agent before analysis. In LC-MS analysis, both fractions were reconstituted in appropriate solvent mixtures. HPLC was performed by gradient elution on reversed phase separation columns. For mass spectrometric detection metanomics proprietary technology was applied which allows target and high sensitivity MRM (Multiple Reaction Monitoring) profiling in parallel to a full screen analysis.
(§4) Following comprehensive analytical validation steps, the data for each analyte were normalized against data from pool samples. These samples were run in parallel through the whole process to account for process variability. The significance of treatment group values specific for sex, dose group and metabolite was determined by comparing means of the treated groups to the means of the respective untreated control groups using Student's t-test. Normalized treatment group values and their significance were fed into a database for further statistics and data mining processes.
(§5) The changes of the group of plasma metabolites being indicative for liver enzyme induction after treatment of the rats are shown in the following tables: […]

female rats = experiment: Plasma metabolite profiling (GC-MS/LC-MS), markers for liver enzyme induction in female rats, 28-day gavage study; assay type: in vivo, rat; conditions: high dose
Protocol: as §1, §2, §3, §4, §5

## Clc1cc(Cl)c(Cl)c(Cl)c1Cl [Pentachlorobenzene]
Male rats; day 7, relative to controls
  1,2-Dioleoyl-sn-glycero-3-phosphatidyl-L-serine, change of plasma metabolite, mh7: 1.27
  Behenic acid (C22:0), change of plasma metabolite, mh7: 1.43
  Cholesterol, change of plasma metabolite, mh7: 1.31
  Eicosapentanoic acid, change of plasma metabolite, mh7: 1.4
  Galactose, lipid fraction, change of plasma metabolite, mh7: 1.37
  Lignoceric acid (C24:0), change of plasma metabolite, mh7: 1.32
  Nervonic acid (C24:1), change of plasma metabolite, mh7: 1.30
  Phosphatidylcholine (C18:0/C18:2), change of plasma metabolite, mh7: 1.01
  Phosphatidylcholine (C18:0/C22:6), change of plasma metabolite, mh7: 1.12
  Sphingolipids (3- and 5-Methoxysphingosine), change of plasma metabolite, mh7: 1.42
  Stearic acid (C18:0), change of plasma metabolite, mh7: 1.34
  Threonic acid, change of plasma metabolite, mh7: 3.06
Male rats; day 14, relative to controls
  1,2-Dioleoyl-sn-glycero-3-phosphatidyl-L-serine, change of plasma metabolite, mh14: 1.35
  Behenic acid (C22:0), change of plasma metabolite, mh14: 1.26
  Cholesterol, change of plasma metabolite, mh14: 1.46
  Eicosapentanoic acid, change of plasma metabolite, mh14: 1.4
  Galactose, lipid fraction, change of plasma metabolite, mh14: 1.37
  Lignoceric acid (C24:0), change of plasma metabolite, mh14: 1.16
  Nervonic acid (C24:1), change of plasma metabolite, mh14: 1.78
  Phosphatidylcholine (C18:0/C18:2), change of plasma metabolite, mh14: 1.11
  Phosphatidylcholine (C18:0/C22:6), change of plasma metabolite, mh14: 1.15
  Sphingolipids (3- and 5-Methoxysphingosine), change of plasma metabolite, mh14: 1.79
  Stearic acid (C18:0), change of plasma metabolite, mh14: 1.25
  Threonic acid, change of plasma metabolite, mh14: 2.98
Male rats; day 28, relative to controls
  1,2-Dioleoyl-sn-glycero-3-phosphatidyl-L-serine, change of plasma metabolite, mh28: 1.27
  Behenic acid (C22:0), change of plasma metabolite, mh28: 1.34
  Cholesterol, change of plasma metabolite, mh28: 1.04
  Eicosapentanoic acid, change of plasma metabolite, mh28: 1.4
  Galactose, lipid fraction, change of plasma metabolite, mh28: 1.51
  Lignoceric acid (C24:0), change of plasma metabolite, mh28: 1.21
  Nervonic acid (C24:1), change of plasma metabolite, mh28: 1.17
  Phosphatidylcholine (C18:0/C18:2), change of plasma metabolite, mh28: 1.10
  Phosphatidylcholine (C18:0/C22:6), change of plasma metabolite, mh28: 1.06
  Sphingolipids (3- and 5-Methoxysphingosine), change of plasma metabolite, mh28: 1.46
  Stearic acid (C18:0), change of plasma metabolite, mh28: 1.05
  Threonic acid, change of plasma metabolite, mh28: 3.48
Female rats; day 7, relative to controls
  1,2-Dioleoyl-sn-glycero-3-phosphatidyl-L-serine, change of plasma metabolite, fh7: 1.28
  Arachidonic acid (C20:cis-[5,8,11,14]4), change of plasma metabolite, fh7: 1.27
  Behenic acid (C22:0), change of plasma metabolite, fh7: 1.30
  Cholesterol, change of plasma metabolite, fh7: 1.23
  Docosahexaenoic acid (C22:cis[4,7,10,13,16,19]6), change of plasma metabolite, fh7: 1.79
  Dodecanol, change of plasma metabolite, fh7: 1.17
  Eicosanoic acid (C20:0), change of plasma metabolite, fh7: 1.13
  Galactose, lipid fraction, change of plasma metabolite, fh7: 1.10
  Glycerol, lipid fraction, change of plasma metabolite, fh7: 2.38
  Glycerolphosphate, lipid fraction, change of plasma metabolite, fh7: 1.27
  Heptadecanoic acid (C17:0), change of plasma metabolite, fh7: 1.32
  Lignoceric acid (C24:0), change of plasma metabolite, fh7: 1.39
  Linoleic acid (C18:cis[9,12]2), change of plasma metabolite, fh7: 2.11
  Nervonic acid (C24:1), change of plasma metabolite, fh7: 0.97
  Palmitic acid (C16:0), change of plasma metabolite, fh7: 1.59
  Phosphatidylcholine (C18:0/C18:2), change of plasma metabolite, fh7: 1.14
  Sphingolipids (3- and 5-Methoxysphingosine), change of plasma metabolite, fh7: 1.43
  Stearic acid (C18:0), change of plasma metabolite, fh7: 1.30
  Threonic acid, change of plasma metabolite, fh7: 3.67
  Tricosanoic acid (C23:0), change of plasma metabolite, fh7: 1.18
  gamma-Linolenic acid (C18:cis[6,9,12]3), change of plasma metabolite, fh7: 1.71
  myo-Inositol-2-monophosphate, lipid fraction, change of plasma metabolite, fh7: 1.81
Female rats; day 14, relative to controls
  1,2-Dioleoyl-sn-glycero-3-phosphatidyl-L-serine, change of plasma metabolite, fh14: 1.72
  Arachidonic acid (C20:cis-[5,8,11,14]4), change of plasma metabolite, fh14: 1.89
  Behenic acid (C22:0), change of plasma metabolite, fh14: 1.60
  Cholesterol, change of plasma metabolite, fh14: 1.64
  Docosahexaenoic acid (C22:cis[4,7,10,13,16,19]6), change of plasma metabolite, fh14: 2.49
  Dodecanol, change of plasma metabolite, fh14: 1.79
  Eicosanoic acid (C20:0), change of plasma metabolite, fh14: 2.76
  Galactose, lipid fraction, change of plasma metabolite, fh14: 1.28
  Glycerol, lipid fraction, change of plasma metabolite, fh14: 7.37
  Glycerolphosphate, lipid fraction, change of plasma metabolite, fh14: 1.52
  Heptadecanoic acid (C17:0), change of plasma metabolite, fh14: 1.89
  Lignoceric acid (C24:0), change of plasma metabolite, fh14: 1.60
  Linoleic acid (C18:cis[9,12]2), change of plasma metabolite, fh14: 5.23
  Nervonic acid (C24:1), change of plasma metabolite, fh14: 1.55
  Palmitic acid (C16:0), change of plasma metabolite, fh14: 3.46
  Phosphatidylcholine (C18:0/C18:2), change of plasma metabolite, fh14: 1.20
  Sphingolipids (3- and 5-Methoxysphingosine), change of plasma metabolite, fh14: 1.77
  Stearic acid (C18:0), change of plasma metabolite, fh14: 1.87
  Threonic acid, change of plasma metabolite, fh14: 3.63
  Tricosanoic acid (C23:0), change of plasma metabolite, fh14: 1.46
  gamma-Linolenic acid (C18:cis[6,9,12]3), change of plasma metabolite, fh14: 4.53
  myo-Inositol-2-monophosphate, lipid fraction, change of plasma metabolite, fh14: 3.61
Female rats; day 28, relative to controls
  1,2-Dioleoyl-sn-glycero-3-phosphatidyl-L-serine, change of plasma metabolite, fh28: 1.51
  Arachidonic acid (C20:cis-[5,8,11,14]4), change of plasma metabolite, fh28: 1.50
  Behenic acid (C22:0), change of plasma metabolite, fh28: 1.41
  Cholesterol, change of plasma metabolite, fh28: 1.62
  Docosahexaenoic acid (C22:cis[4,7,10,13,16,19]6), change of plasma metabolite, fh28: 1.57
  Dodecanol, change of plasma metabolite, fh28: 1.40
  Eicosanoic acid (C20:0), change of plasma metabolite, fh28: 1.98
  Galactose, lipid fraction, change of plasma metabolite, fh28: 1.40
  Glycerol, lipid fraction, change of plasma metabolite, fh28: 2.68
  Glycerolphosphate, lipid fraction, change of plasma metabolite, fh28: 1.43
  Heptadecanoic acid (C17:0), change of plasma metabolite, fh28: 1.54
  Lignoceric acid (C24:0), change of plasma metabolite, fh28: 1.75
  Linoleic acid (C18:cis[9,12]2), change of plasma metabolite, fh28: 2.69
  Nervonic acid (C24:1), change of plasma metabolite, fh28: 1.46
  Palmitic acid (C16:0), change of plasma metabolite, fh28: 1.86
  Phosphatidylcholine (C18:0/C18:2), change of plasma metabolite, fh28: 1.23
  Sphingolipids (3- and 5-Methoxysphingosine), change of plasma metabolite, fh28: 1.73
  Stearic acid (C18:0), change of plasma metabolite, fh28: 1.65
  Threonic acid, change of plasma metabolite, fh28: 4.57
  Tricosanoic acid (C23:0), change of plasma metabolite, fh28: 1.45
  gamma-Linolenic acid (C18:cis[6,9,12]3), change of plasma metabolite, fh28: 2.98
  myo-Inositol-2-monophosphate, lipid fraction, change of plasma metabolite, fh28: 1.93
